# Test results published in a melting point compilation (Tetko et al.).
row,SMILES,melting point
1,CCNC(=O)NC(=O)C(C)Cl (centres undefined),126 to 128 °C
2,Nc1cc2c(nn1)CCNC2,219 to 221 °C
3,O=C(NCCO)c1ccc([N+](=O)[O-])cc1Cl,173 to 175 °C
4,CCN(CC)Cc1csc(N)n1,64 to 66 °C
5,O=C(CO)c1ccc(F)cc1F,95 to 97 °C
6,Clc1nccn2nnnc12,99 to 101 °C
7,N#Cc1ccc(S(N)(=O)=O)cc1Cl,157 to 159 °C
8,Cc1cc(C(=O)O)nn1C(F)F,175 to 177 °C
9,CC(C)CN(C(=O)CCl)C1CCS(=O)(=O)C1 (centres undefined),150 to 155 °C
10,O=[N+]([O-])c1ccc(CCS(=O)(=O)Cl)cc1,89 to 91 °C
11,CS(=O)(=O)N1CCCC(Cl)C1 (centres undefined),54 to 56 °C
12,COc1ccc2cc(C(=O)O)c(C)nc2c1,209 to 211 °C
13,CC(C)(C)S(=O)(=O)Cc1ccc(N)cc1,211 to 213 °C
14,COc1ccc2[nH]c3c(c2c1)CCCC3,59 to 61 °C
15,Cc1ccc(C(=O)O)cc1NCc1ccc(Br)o1,125 to 127 °C
16,NNc1cc(C(F)(F)F)nc(-c2ccncc2)n1,233 to 235 °C
17,NNC(=O)C(=O)NCc1ccco1,158 to 160 °C
18,O=C(O)COC1CCOCC1,65 to 67 °C
19,Nc1ccc(S(=O)(=O)N2CCCC2)cc1,164 to 166 °C
20,O=C(O)c1cccc(-n2cnnn2)c1,168 to 170 °C
21,O=C(O)c1ccc(CNC(=O)C2CCCC2)cc1,228 to 230 °C
22,N#Cc1cccc(S(=O)(=O)n2ccc(N)n2)c1,183 to 185 °C
23,O=C(O)c1cnc(-c2ccc(C(F)(F)F)cc2)s1,160 to 162 °C
24,CCOC(=O)C(=O)CC(=O)c1ccccc1OCC,91 to 93 °C

row,SMILES,melting point
1,Cc1cc(C)n2nc(S)nc2n1,259 to 261 °C
2,COc1ccc(SC)c(OC)c1C(=O)O,117 to 119 °C
3,CCOC(=O)c1ccc(S(=O)(=O)N2CCC(C(=O)O)CC2)o1,170 to 172 °C
4,O=C1CCc2ccccc2CN1,124 to 126 °C
5,CN(C)C(=O)c1ccc2c(c1)CCN2,156 to 158 °C
6,NC(=S)Cc1ccccc1F,92 to 94 °C
7,CNc1ncccc1C(=O)O,220 to 222 °C
8,CC(C)(C)OC(=O)NCc1nc(-c2ccc(N)cc2)n[nH]1,214 to 216 °C
9,O=C(O)CCC(=O)c1ccc2c(c1)CCC2,123 to 125 °C
10,COc1ccccc1CNC(N)=O,124 to 126 °C
11,O=C(O)c1cc(C2CC2)nc2ccc(F)cc12,196 to 198 °C
12,Cc1ccc(-c2nc(N)sc2-c2ccc(C)cc2)cc1,153 to 155 °C
13,Cc1nnc(Cl)c2ccccc12,123 to 125 °C
14,COC(=O)C(=O)CC(=O)c1ccc(-c2ccccc2)cc1,142 to 144 °C
15,O=C(O)C1CC(=O)N(C2CC2)C1 (centres undefined),93 to 95 °C
16,COc1cc(OC)cc(-n2c(C)c(C)c(C#N)c2N)c1,166 to 168 °C
17,Cc1nc(-c2cnn(C)c2)sc1C(=O)O,230 to 232 °C
18,CC(C)(C)OC(=O)N1CCc2[nH]c(=O)c(C#N)cc2C1,239 to 241 °C
19,COc1ccc(CCc2nnc(N)o2)cc1,216 to 218 °C
20,O=C(O)C#Cc1ccc(F)cc1F,170 to 172 °C
21,CC(C)c1nc(C=O)c2ccccn12,95 to 97 °C
22,Cc1ccc(-c2cc(C(=O)O)c3c(C)noc3n2)c(C)c1,222 to 224 °C
23,COc1cccc(OC)c1CC(=O)O,149 to 151 °C
24,CCCn1c(N)c(NCCN2CCOCC2)c(=O)[nH]c1=O,153 to 155 °C

row,SMILES,melting point
1,Cn1ccnc1C(O)(CCN)C(F)(F)F (centres undefined),115 to 117 °C
2,COc1cc(OC)c(NC(=O)OCC(F)(F)F)cc1Cl,87 to 89 °C
3,Cc1sc(N)nc1-c1cccc(Cl)c1,90 to 94 °C
4,CC(Cl)C(=O)Nc1cccc([N+](=O)[O-])c1 (centres undefined),115 to 117 °C
5,CNc1ccccc1C#N,66 to 68 °C
6,O=C(NO)c1c(F)cccc1Cl,149 to 151 °C
7,Cc1ccc(S(=O)(=O)NC(CC(N)=O)C(=O)O)cc1C (centres undefined),179 to 181 °C
8,Sc1nnnc2ccccc12,183 to 185 °C
9,CC(C)Oc1cccc(C(O)CN)c1 (centres undefined),52 to 54 °C
10,O=S(=O)(Cl)N1CC2CCC1C2 (centres undefined),47 to 49 °C
11,CC(C)(C)C(Br)C(=O)O (centres undefined),62 to 64 °C
12,Cc1cccc(C2(C(=O)O)CCCCC2)c1,141 to 143 °C
13,Cc1cc(Oc2ccccc2)ccc1N,60 to 62 °C
14,CCOc1ccc(C(=O)NN)cc1OC,161 to 163 °C
15,c1ccc2cc(CN3CCNCC3)ccc2c1,53 to 55 °C
16,CC(C)Oc1cc(Br)cc(C(=O)O)c1,126 to 128 °C
17,CC(C)(C)c1ccc(C2(C(=O)O)CC2)cc1,201 to 203 °C
18,Cc1cc(C)cc(N2CCC(C(=O)O)C2=O)c1 (centres undefined),115 to 117 °C
19,CN1CCN(CCC(=O)NN)CC1,87 to 89 °C
20,CCOC(=O)c1c(C)nn2c(=O)cc(CCl)[nH]c12,218 to 220 °C
21,CSc1cccc(NC2CCN(C)CC2)c1,76 to 78 °C
22,NC(=O)c1ccccc1N1CCC(N)CC1,143 to 145 °C
23,C=CC(=O)NCc1ccc(F)cc1,118 to 120 °C
24,CC(C)c1ccc(S(=O)(=O)N2CCNCC2)cc1,125 to 127 °C

row,SMILES,melting point
1,N#Cc1ccc(Oc2ccc(C(=O)O)cc2)nc1,246 to 248 °C
2,O=[N+]([O-])c1ccc(Cn2ccnc2)cc1,39 to 41 °C
3,Nc1ccn(-c2ccccc2)n1,77 to 79 °C
4,CN(C(=O)c1ccncc1)c1ccc(C#N)cc1,105 to 107 °C
5,Nc1ccc(C(=O)NCCO)cc1,115 to 117 °C
6,N#CSCC(=O)c1ccccc1C(F)(F)F,49 to 51 °C
7,CC(=O)Nc1ccc(N)nc1,166 to 168 °C
8,Nc1nnc(-c2ccc(F)cc2)o1,246 to 248 °C
9,COc1ccc2c(O)ccnc2c1,213 to 215 °C
10,Cn1cc(S(=O)(=O)Cl)cc1C(=O)O,164 to 166 °C
11,CCCCOc1ccc(C(=O)O)cc1OCCCC,140 to 142 °C
12,O=C(O)CCc1nc(-c2ccccn2)no1,206 to 208 °C
13,FC(F)c1nc2c(Cl)cccc2[nH]1,125 to 127 °C
14,CSc1nc(NC(C)=O)n(C(C)=O)n1,226 to 228 °C
15,Nc1ccc(S(=O)(=O)N2CCCCC2)cn1,171 to 173 °C
16,O=C(O)c1cnn(-c2ccccc2Cl)c1,170 to 172 °C
17,Cc1cccc(C=C(C(=O)O)c2cccs2)c1,158 to 160 °C
18,CCOCc1c(C(=O)O)oc2ccccc12,103 to 105 °C
19,COc1ccc(NC(=O)C(=O)O)cc1,206 to 208 °C
20,Cc1ccc(Br)c(S(=O)(=O)Cl)c1,57 to 59 °C
21,NC(C(=O)O)c1ccccc1C(F)(F)F (centres undefined),282 to 284 °C
22,CC(C)(C)OC(=O)N1C(C(=O)O)CC2CCCCC21 (centres undefined),133 to 135 °C
23,CCOC(=O)c1ccc(N2C(=O)Cc3ccccc3C2=O)cc1,174 to 176 °C
24,Cc1c(C(=O)O)cnn1Cc1ccccc1,172 to 174 °C

row,SMILES,melting point
1,CSc1nc(C2CC2)cc(C(=O)O)c1C#N,181 to 183 °C
2,CCOC(=O)c1sc(NCCCC(=O)O)nc1-c1ccccc1,120 to 122 °C
3,O=c1cc(CCl)nc2scnn12,183 to 187 °C
4,O=C1NC(=O)C(c2cccs2)(C2CC2)N1 (centres undefined),199 to 201 °C
5,O=C1CCCN1c1ccc(O)cc1,159 to 161 °C
6,CCOC(=O)CSc1nnc(-c2ccco2)o1,59 to 61 °C
7,NC(=S)Nc1cccc2c1CCCC2,165 to 167 °C
8,CNc1ccc(C)nn1,162 to 164 °C
9,Cn1cnnc1Sc1ccc(N)cc1Cl,168 to 170 °C
10,CNCC(O)COc1ccc2c(c1)OCO2 (centres undefined),93 to 95 °C
11,Nc1ccc(Oc2ccnc3ccccc23)cc1,135 to 137 °C
12,C#CCNC(=O)c1ccc(Cl)nc1,139 to 141 °C
13,CC(C)(C)[Si](C)(C)Oc1cc(C(=O)O)cc2ccccc12,153 to 155 °C
14,O=C1COc2cc(S(=O)(=O)Cl)c(Br)cc2N1,223 to 225 °C
15,O=C(O)CCc1nc(-c2ccc(Cl)cc2)no1,152 to 154 °C
16,O=C(O)C1CCC(=O)N(Cc2ccccc2)C1 (centres undefined),154 to 156 °C
17,Sc1nc(C2CC2)nc2ccccc12,219 to 221 °C
18,Cc1ccc(-c2nnc(N)[nH]2)cc1,206 to 208 °C
19,COC(=O)c1cc(Cl)c(N)cc1OC,124 to 126 °C
20,Cc1sc(-c2ccco2)nc1C(=O)O,229 to 231 °C
21,Nc1ccc(S(=O)(=O)N=C2CCCCCN2)cc1,115 to 117 °C
22,CC(C)(C(=O)O)S(=O)(=O)c1ccc(Br)cc1,162 to 164 °C
23,CCC1(c2ccc(O)cc2)NC(=O)NC1=O (centres undefined),279 to 281 °C
24,CCOC(=O)c1cnn2c1NCCC2,159 to 161 °C

row,SMILES,melting point
1,O=C(CO)N1CCCC1,37 to 39 °C
2,O=C(CCl)NC(c1ccccc1)c1ccc2[nH]c(C(F)(F)F)nc2c1 (centres undefined),193 to 195 °C
3,CC(C)(C)OC(=O)N1CCC(Oc2ccccc2)(C(=O)O)CC1,103 to 105 °C
4,NNS(=O)(=O)Cc1ccc(F)cc1,144 to 146 °C
5,Cc1c(N)cccc1NC(=O)c1ccccc1I,198 to 200 °C
6,NCC1CCN(C(=O)c2ccccc2)CC1,70 to 72 °C
7,O=S(=O)(Cl)N1CCCC2CCCCC21 (centres undefined),34 to 36 °C
8,O=C(Nc1ccccc1)C(Cl)c1ccccc1 (centres undefined),150 to 152 °C
9,CC(=O)CC(=O)c1cccc(Cl)c1,39 to 41 °C
10,Fc1cccc(-c2nc(CCl)co2)c1,55 to 57 °C
11,NS(=O)(=O)Cc1ccc(Cl)nc1,142 to 144 °C
12,CNc1ncccc1N,108 to 110 °C
13,Cc1oncc1C(=O)Nc1ccc(O)c(C(=O)O)c1,249 to 251 °C
14,CN(C)S(=O)(=O)c1ccc2[nH]c(CO)nc2c1,232 to 234 °C
15,Cn1cnnc1C1CCNCC1,181 to 183 °C
16,Cc1c(Cl)cnc(NC(=O)CCl)c1Cl,268 to 270 °C
17,Nc1ccc(S(=O)(=O)Nc2ccc(F)cc2)cc1,162 to 164 °C
18,CN1C(=O)C(C(N)=NO)=C(N)C12CCCC2,210 to 212 °C
19,O=[N+]([O-])c1ccc(N2CCNCC2)cn1,147 to 149 °C
20,O=c1[nH]c(-c2ccccc2Cl)cs1,182 to 184 °C
21,Cn1ccnc1-c1nnc(N)s1,263 to 265 °C
22,O=C(Nc1cccs1)OCC(F)(F)F,58 to 60 °C
23,Nc1ccc(-n2ccnn2)cc1,137 to 139 °C
24,Cc1cnc2c(C)cnn2c1N,239 to 241 °C
